How the values were obtained:
[1] = system: CD34 expression in HL-60 cells; test: quantitative real time PCR of stem cell marker (FIG. 3A); type: cell-based, human; conditions: HL-60, 24 h after treatment, normalized to ACTB
Method: HL-60 cells (10×10^6) were plated in 100 mm tissue culture dishes (Corning Life Sciences) in RPMI 10% FCS. Cells were treated in 10 mL total volume with the compound described in Example 83 24 h after treatment, nucleic acid preparation was done by using the Bioneer RNA purification kit (Bioneer, Viral RNA extraction kit, Daejeon, South Korea) according to an already published protocol (Szebeni et al. 2017a). The quality and quantity of the isolated RNA were measured with NanoDrop1000 Version 3.8.1. (Thermo Fisher Scientific). Reverse transcription from 3 μg of total RNA was performed with the High-Capacity cDNA Archive Kit (Applied Biosystems, Foster City, Calif., USA) in a total volume of 30 μL according to the manufacturer's protocol. Quantitative-real time PCR was carried out using gene specific primers for CD33 (primer sequences: forward 5′ […] 3′, reverse 5′ […] 3′) and CD34, (primer sequences: forward 5′ gcgctttgcttgctgagt 3′, reverse 5′ […] 3′) using Sybr Green detection on a LightCycler Nano instrument (Roche, Hungary). Relative gene expression data was normalized to ACTB (beta actin, primer sequences: forward 5′ attggcaatgagcggttc 3′, reverse 5′ cgtggatgccacaggact 3′) expression.

HL-60 cells = test: resazurin viability assay, Example 103 (FIG. 1); type: cell-based; conditions: Homo sapiens, 72 h incubation, 20.000 cells/well, read-out: half-inhibitory concentration (IC50) on viability of HL-60 cells
Method: The human primary fibroblasts (6000 cells/well) and Hl60 cells (20.000 cells/well) were seeded into 96-well plates (Corning Life Sciences) in media. Fibroblasts were cultured overnight before treatment. Effects of compounds described in Example 22, 60 and 83 were examined in concentrations of 1 μM, 250 nM, 62.5 nM, 15.6 nM, 3.9 nM and 0.9 nM in 100 μl after 72 h incubation. Resazurin reagent was prepared and used as described in Example 1.
Viability was calculated with relation to untreated control cells and blank wells containing media without cells. IC50 values (50% inhibiting concentration) were calculated by GraphPad Prism® 5.

[2] = system: MIA PaCa-2 (human pancreas carcinoma); test: viability assay (Table 2); type: cell-based
Method: (§1) For viability assays cells were seeded in 96 well plates (MCF7 and 4T1: 6000, HL60: 120.000 cells/well) and incubated overnight. Compounds were dissolved in dimethyl sulfoxide (DMSO). Cells were treated with an increasing concentration of compounds having the general formula (I.) (156 nM-100 μM). Cell viability was determined after 72h incubation. Resazurin reagent (Sigma-Aldrich) was dissolved in PBS (pH 7.4) at 0.15 mg/ml concentration, sterile filtered (0.22 μm, Merck Millipore) and aliquoted at −20° C. Resazurin reagent (Sigma-Aldrich) was added at a final concentration of 25 μg/ml. After 2 hours incubation at 37° C. 5% CO2 fluorescence (530 nm excitation/580 nm emission) was recorded on a multimode microplate reader (Cytofluor4000, PerSeptive Biosytems). Viability was calculated with relation to untreated control cells and blank wells containing media without cells. IC50 values (50% inhibiting concentration) were calculated by GraphPad Prism® 5 (La Jolla, Calif., USA).
(§2) GBM2 (human glioblastoma), HeLa (human cervical carcinoma), MIA PaCa-2 (human pancreas carcinoma) and U87MG (human glioblastoma) cells were maintained in Dulbecco's Modified Eagle Medium (DMEM) 10% fetal calf serum (FCS, Gibco). A375 (human melanoma), A549 (human lung adenocarcinoma) and HEP3B (human hepatoma) cells were maintained in Dulbecco's Modified Eagle Medium/Nutrient Mixture F-12 (DMEM/F12) 10% FCS.
(§3) Media were supplemented with 2 mM GlutaMAX, and 100 U/mL penicillin, 100 μg/mL streptomycin (Life Technologies, Carlsbad, Calif., USA). Cell cultures were maintained at 37° C. in a humidified incubator in an atmosphere of 5% CO2 (Sanyo, Japan).
(§4) Viability assays were performed as described in Example 102.

[3] = system: A549 (human lung adenocarcinoma); test: viability assay (Table 2); type: cell-based
Method: as §1, §2, §3, §4

[4] = system: GBM2 (human glioblastoma); test: viability assay (Table 2); type: cell-based
Method: as §1, §2, §3, §4

[5] = system: HT29 (human colorectal adenocarcinoma); test: viability assay (Table 2); type: cell-based; conditions: HT-29
Method: as §1
(§5) HT168 (human melanoma), HT199 (human melanoma), HT29 (human colorectal adenocarcinoma), MOLT4 (human leukemia) and U937 (human lymphoma) cells were maintained in Roswell Park Memorial Institute 1640 medium (RPMI-1640) 10% FCS. SKOV-3 cells were maintained in Dulbecco's Modified Eagle Medium/McCoy's medium (DMEM/McCoy) 10% FCS.
as §3, §4

HT199 (human melanoma) = test: viability assay (Table 2); type: cell-based
Method: as §1, §5, §3, §4

HT168 (human melanoma) = test: viability assay (Table 2); type: cell-based
Method: as §1, §5, §3, §4

[6] = system: pAkt (Ser473) in HL-60 cells; test: flow cytometry of pAkt bright cells (FIG. 2B); type: cell-based, human; conditions: HL-60, 40 nM, 200 nM and 1 μM
Method: Human promyelocytic leukemia HL60 Cells (500,000/well) were plated in 24-well tissue culture plates (Corning Life Sciences) in RPMI 10% FCS (Gibco) and were treated with the compounds described in Example 60 and 83 at 40 nM, 200 nM and 1 μM concentrations in 500 μl media. After 24 h incubation time cells with the corresponding supernatants were harvested and centrifuged down (2000 rpm, 5 min).
Pellets were resuspended and fixed in 3.5% PBS buffered formaldehyde (Molar Chemicals) for 10 minutes. Cells were washed with FACS-buffer (2% FCS, (Gibco) in PBS), centrifuged down (2000 rpm, 5 min). Cells were permeabilized in Permeability buffer (1% FCS, 0.1% saponin (Sigma-Aldrich) in PBS pH 7.4) for 5 minutes. Cells were washed with FACS buffer (2% FCS, (Gibco) in PBS), centrifuged (2000 rpm, 5 min). The following primary antibodies were used: Bcl-xl-Alexa 488, (Cell Signaling, cat. numb. 2767S), dilution 1:75, 24 h; pAkt-Alexa Fluor 488, (Ser473), (Cell Signaling, cat. numb, 4071), dilution 1:50, 24 or 72h; After incubation for 1h at 4° C. samples were washed two times with FACS buffer. […] In order to calculate the signal to noise ratio mean fluorescent intensity (MFI) was calculated by the following equation: =POWER(10; (Medianstained−Median unstained, untreated)/Chd), where Chd means 256, the number of channels per decade (Fajka-Boja et al. 2002; Sharrow 2001) in Microsoft Excel. […]

For CC(C)(C)Nc1c(C(C)(C)C)[nH]c2c(C(=O)Nc3ccc(N)cc3)cnn12 [Example 83, N-(4-Aminophenyl)-2-(tert-butyl)-3-(tert-butylamino)-1H-imidazo[1,2-b]pyrazole-7-carboxamide], the “expression of haematopoietic stem cell marker CD34” value [1] was “decreased”, the IC50 (HL-60 cells) was 50 nM and the IC50 [2] was 300 nM. For the same compound, the IC50 [3] was 300 nM, the IC50 [4] was 100 nM and the IC50 [5] was 50 nM. For the same compound, the IC50 (HT199 (human melanoma)) was 100 nM, the IC50 (HT168 (human melanoma)) was 100 nM and the “percentage of the pAkt bright cells” value [6] was “increase”.

In the case of CC(C)(C)Nc1c(C(C)(C)C)[nH]c2c(C(=O)Nc3ccc(F)cc3)cnn12 [Example 60, 2-(Tert-butyl)-N-(4-fluorophenyl)-3-((tert-butyl-2-yl)amino)-1H-imidazo[1,2-b]pyrazole-7-carboxamide], the IC50 (HL-60 cells) is reported as 210 nM, the IC50 [2] is reported as 300 nM and the IC50 [3] is reported as 750 nM. It also gave an IC50 [4] of 250 nM, an IC50 [5] of 250 nM and an IC50 (HT199 (human melanoma)) of 300 nM. The IC50 (HT168 (human melanoma)) was 500 nM and the “percentage of the pAkt bright cells” value [6] was “increase”.
